Data published in the NIST ThermoML archive (doi:10.1016/j.jct.2014.01.004).
Numbers after ± are expanded uncertainties.

Key:
[1] = for viscosity / speed of sound / mass density: 101.33 kPa, Liquid; for viscosity: Falling or rolling sphere viscometry; for speed of sound: Sing-around technique in a fixed-path interferometer; for mass density: Vibrating tube method
[2] = Molar enthalpy of transition or fusion; details: Crystal; DSC

Row | Compound | viscosity ([1]; 293.15 K) [mPa·s] | speed of sound ([1]; 293.15 K) [m/s] | mass density ([1]; 293.15 K) [kg/m3] | viscosity ([1]; 298.15 K) [mPa·s] | speed of sound ([1]; 298.15 K) [m/s] | mass density ([1]; 298.15 K) [kg/m3] | viscosity ([1]; 303.15 K) [mPa·s] | speed of sound ([1]; 303.15 K) [m/s] | mass density ([1]; 303.15 K) [kg/m3] | viscosity ([1]; 308.15 K) [mPa·s] | speed of sound ([1]; 308.15 K) [m/s] | mass density ([1]; 308.15 K) [kg/m3] | viscosity ([1]; 313.15 K) [mPa·s] | speed of sound ([1]; 313.15 K) [m/s] | mass density ([1]; 313.15 K) [kg/m3] | viscosity ([1]; 318.15 K) [mPa·s] | speed of sound ([1]; 318.15 K) [m/s] | mass density ([1]; 318.15 K) [kg/m3] | viscosity ([1]; 323.15 K) [mPa·s] | speed of sound ([1]; 323.15 K) [m/s] | other results
1 | CC(=O)[O-].[NH3+]CCCO [3-hydroxypropylammonium acetate] | 4261.7 ± 650 | 1779.8 ± 5.2 | 1114.58 ± 6.7 | 2827 ± 390 | 1770.8 ± 5.2 | 1112.02 ± 6.7 | 1937 ± 240 | 1761.9 ± 5.2 | 1109.46 ± 6.7 | 1348.5 ± 150 | 1753.3 ± 5.2 | 1106.91 ± 6.7 | 970.9 ± 100 | 1745.2 ± 5.2 | 1104.36 ± 6.6 | 714.44 ± 66 | 1736.4 ± 5.2 | 1101.8 ± 6.6 | 526 ± 44 | 1727.8 ± 5.2 | mass density ([1]; 323.15 K): 1099.24 ± 6.5 kg/m3; viscosity ([1]; 328.15 K): 400.11 ± 30 mPa·s; speed of sound ([1]; 328.15 K): 1719.3 ± 5.2 m/s; mass density ([1]; 328.15 K): 1096.68 ± 6.5 kg/m3; viscosity ([1]; 333.15 K): 305.97 ± 20 mPa·s; speed of sound ([1]; 333.15 K): 1710.3 ± 5.2 m/s; mass density ([1]; 333.15 K): 1094.13 ± 6.5 kg/m3; viscosity ([1]; 338.15 K): 238.21 ± 14 mPa·s; speed of sound ([1]; 338.15 K): 1702.8 ± 5.2 m/s; mass density ([1]; 338.15 K): 1091.59 ± 6.5 kg/m3; viscosity ([1]; 343.15 K): 190.4 ± 9.9 mPa·s; speed of sound ([1]; 343.15 K): 1693.6 ± 5.2 m/s; mass density ([1]; 343.15 K): 1089.03 ± 6.4 kg/m3; Glass transition temperature ([1]; DTA): -26.00 ± 4 °C
2 | O=C[O-].[NH3+]CCCO [3-hydroxypropylammonium formate] | 339.04 ± 23 | 1824.3 ± 5.2 | 1148.29 ± 7.2 | 257.15 ± 16 | 1816.3 ± 5.2 | 1145.84 ± 7.1 | 198.39 ± 11 | 1808.3 ± 5.2 | 1143.39 ± 7.1 | 154.49 ± 7.3 | 1800.5 ± 5.2 | 1140.95 ± 7.1 | 122.56 ± 5.2 | 1792.3 ± 5.2 | 1138.53 ± 7 | 98.17 ± 3.8 | 1785.2 ± 5.2 | 1136.12 ± 7 | 79.84 ± 2.8 | 1776.4 ± 5.2 | mass density ([1]; 323.15 K): 1133.73 ± 7 kg/m3; viscosity ([1]; 328.15 K): 65.37 ± 2.2 mPa·s; speed of sound ([1]; 328.15 K): 1768.3 ± 5.2 m/s; mass density ([1]; 328.15 K): 1131.34 ± 7 kg/m3; viscosity ([1]; 333.15 K): 53.98 ± 1.7 mPa·s; speed of sound ([1]; 333.15 K): 1760.4 ± 5.2 m/s; mass density ([1]; 333.15 K): 1128.97 ± 6.9 kg/m3; viscosity ([1]; 338.15 K): 45.36 ± 1.5 mPa·s; speed of sound ([1]; 338.15 K): 1752.5 ± 5.2 m/s; mass density ([1]; 338.15 K): 1126.61 ± 6.9 kg/m3; viscosity ([1]; 343.15 K): 38.38 ± 1.3 mPa·s; speed of sound ([1]; 343.15 K): 1744.7 ± 5.2 m/s; mass density ([1]; 343.15 K): 1124.25 ± 6.9 kg/m3; Glass transition temperature ([1]; DTA): -24.00 ± 4 °C
3 | O=C([O-])C(F)(F)F.[NH3+]CCCO [3-hydroxypropylammonium trifluoroacetate] | 1430.2 ± 170 | 1487.9 ± 7.1 | 1311.44 ± 19 | 970.33 ± 100 | 1476.5 ± 7.1 | 1307.81 ± 19 | 677.32 ± 64 | 1465.5 ± 7.1 | 1304.2 ± 19 | 483.03 ± 41 | 1454.9 ± 7.1 | 1300.58 ± 19 | 352.31 ± 26 | 1444.5 ± 7.1 | 1296.96 ± 19 | 262.07 ± 17 | 1434.3 ± 7.1 | 1293.34 ± 18 | 198.79 ± 12 | 1424.2 ± 7.1 | mass density ([1]; 323.15 K): 1289.72 ± 18 kg/m3; viscosity ([1]; 328.15 K): 153.05 ± 8.1 mPa·s; speed of sound ([1]; 328.15 K): 1413.9 ± 7.1 m/s; mass density ([1]; 328.15 K): 1286.1 ± 18 kg/m3; viscosity ([1]; 333.15 K): 119.86 ± 5.8 mPa·s; speed of sound ([1]; 333.15 K): 1403.6 ± 7.1 m/s; mass density ([1]; 333.15 K): 1282.49 ± 18 kg/m3; viscosity ([1]; 338.15 K): 94.92 ± 4.3 mPa·s; speed of sound ([1]; 338.15 K): 1393.2 ± 7.1 m/s; mass density ([1]; 338.15 K): 1278.88 ± 18 kg/m3; viscosity ([1]; 343.15 K): 76.72 ± 3.3 mPa·s; speed of sound ([1]; 343.15 K): 1382.8 ± 7.1 m/s; mass density ([1]; 343.15 K): 1275.25 ± 18 kg/m3; Glass transition temperature ([1]; DTA): -28.00 ± 4 °C
4 | CC(=O)[O-].CCC[NH3+] [propylammonium acetate] | 932.22 ± 95 | 1517.1 ± 5.1 | 989.97 ± 5.3 | 627.41 ± 56 | 1508 ± 5.1 | 986.91 ± 5.3 | 435.42 ± 34 | 1497.1 ± 5.1 | 983.85 ± 5.2 | 309.95 ± 21 | 1487.6 ± 5.1 | 980.77 ± 5.2 | 226.35 ± 13 | 1477 ± 5.1 | 977.69 ± 5.2 | 167.69 ± 8.2 | 1467.8 ± 5.1 | 974.6 ± 5.1 | 128.15 ± 5.5 | 1457.5 ± 5.1 | mass density ([1]; 323.15 K): 971.5 ± 5.1 kg/m3; viscosity ([1]; 328.15 K): 99.03 ± 3.8 mPa·s; speed of sound ([1]; 328.15 K): 1447.9 ± 5.1 m/s; mass density ([1]; 328.15 K): 968.4 ± 5.1 kg/m3; viscosity ([1]; 333.15 K): 78.03 ± 2.7 mPa·s; speed of sound ([1]; 333.15 K): 1437.3 ± 5.1 m/s; mass density ([1]; 333.15 K): 965.3 ± 5 kg/m3; viscosity ([1]; 338.15 K): 61.96 ± 2 mPa·s; speed of sound ([1]; 338.15 K): 1427.4 ± 5.1 m/s; mass density ([1]; 338.15 K): 962.17 ± 5 kg/m3; viscosity ([1]; 343.15 K): 50.02 ± 1.6 mPa·s; speed of sound ([1]; 343.15 K): 1417.5 ± 5.1 m/s; mass density ([1]; 343.15 K): 959.03 ± 5 kg/m3; Glass transition temperature ([1]; DTA): -26.00 ± 4 °C
5 | CCC[NH3+].O=C[O-] [propylammonium formate] | 96.77 ± 3.7 | 1553.1 ± 5.2 | 996.18 ± 5.4 | 78.6 ± 2.8 | 1542.7 ± 5.2 | 993.47 ± 5.3 | 63.58 ± 2.1 | 1532.4 ± 5.1 | 990.77 ± 5.3 | 52.67 ± 1.7 | 1522.2 ± 5.1 | 988.09 ± 5.3 | 43.97 ± 1.4 | 1512 ± 5.1 | 985.42 ± 5.2 | 37.16 ± 1.2 | 1501.8 ± 5.1 | 982.75 ± 5.2 | 31.43 ± 1 | 1491.7 ± 5.1 | mass density ([1]; 323.15 K): 980.1 ± 5.2 kg/m3; viscosity ([1]; 328.15 K): 26.92 ± 0.88 mPa·s; speed of sound ([1]; 328.15 K): 1481.6 ± 5.1 m/s; mass density ([1]; 328.15 K): 977.45 ± 5.2 kg/m3; viscosity ([1]; 333.15 K): 23.32 ± 0.77 mPa·s; speed of sound ([1]; 333.15 K): 1471.7 ± 5.1 m/s; mass density ([1]; 333.15 K): 974.8 ± 5.1 kg/m3; viscosity ([1]; 338.15 K): 20.18 ± 0.66 mPa·s; speed of sound ([1]; 338.15 K): 1461.8 ± 5.1 m/s; mass density ([1]; 338.15 K): 972.15 ± 5.1 kg/m3; viscosity ([1]; 343.15 K): 17.57 ± 0.58 mPa·s; speed of sound ([1]; 343.15 K): 1452 ± 5.1 m/s; mass density ([1]; 343.15 K): 969.49 ± 5.1 kg/m3; Normal melting temperature ([1]; Crystal, DTA): 34.00 ± 4 °C; Molar enthalpy of transition or fusion [2]: 2.17 ± 0.12 kcal/mol
